Entries after “also recorded” stand apart in the source; their conditions may differ.

Data on four sequences can be found in patent publication US12723064B2, “Treating Alzheimer's disease” (Yeda Research and Development Co. Ltd., priority 2020, dated 2026).

The target in experiment [1] is T1, APP-Tau binding (Homo sapiens, UniProt P10636).
T1 construct: purchased Bio-Legend US
Description: ELISA: peptide inhibition of Tau and APP protein binding. The following applies: peptides or combinations 1 μg/ml, four hours at RT before APP protein; anti Aß detection. As to the method:
An ELISA plate (96 wells) was coated with Tau protein 1 μg/ml in bicarbonate PH=8.2 50 μl/well, then incubated overnight at 4° C. Peptides and their combinations were also incubated overnight at 4° C. in PBS 1 μg/ml. The next day, the plate was washed 3× with PBS and blocked with 3% BSA/PBS for two hours at RT. The plate was washed again 3× with PBS and peptides or their combinations 50 ul/well were added for four hours at RT. The plate was washed again 3× with PBS and APP protein, 1 μg/ml 50 μl/well was added for ON incubation at 4° C. The next day, the plate was washed 3× with PBS, following which anti Aß 1-16 (1 mg/ml) was added (1:500 dilution 50 μl/well) for two hours at RT. The plate was washed again and anti-mouse HRP antibodies (1:10,000 dilution in PBS 1% BSA) added at 50 μl/well. Color reaction was stopped with 50 μl/well of 1M H2S04 and read at 0.D. 450.

In experiment [2] the test system is Tau. The settings on record: previously reported (19); cited from earlier work.
Experiment [3] concerns mice. Description: Y maze behavior test of APP1 peptide flexibly linked to Tau peptide. Type of experiment: in vivo. The settings on record: treated mice vs control treated mice (PBS), FIG. 6. The text has this: The Y-maze test (45) consists of two trials, first “training” and second “retention”, separated by an inter-trial interval (ITI). Each arm of the Y-maze was equipped with a guillotine door that could be operated manually. The three identical arms were randomly designated as follows: the “start” (steam) arm, in which the mouse began to explore the maze (always open); the “Novel” arm, which was closed off during the first trial, but open in the second one; and the “other” arm (always open). The first (training) trial lasted five minutes and allowed the mouse to explore only two arms (“start” and “other”) of the maze. Access to the third (“Novel”) arm was blocked. The second trial (retention) was conducted after a two minute ITL. During this three minute trial, all three arms were accessible. The mouse was returned to the same starting arm and was allowed to explore all three arms. Retention was scored as a preferential index to the “Novel” arm, that was calculated as follows: time spent in the “Novel” arm minus the time spent in the old arm divided by the sum of time spent in both arms (46).
An additional experiment was carried out testing the effects of the APP1 peptide flexibly linked to the TAU peptide on behavior as tested in the Y maze.

Experiment [4] concerns hippocampus. In words: Number of elements and % of area in the hippocampus (Table 3). It counts as in vivo, mice. As to the method:
Mice were sacrificed (trans-cardially punctured, and saline-perfused). The right brain hemisphere of each mouse was stored at −70° C. to quantify Aβ levels. The left hemispheres were fixed (4% paraformaldehyde) and prepared for paraffin blocks which were cut into six micron sagittal sections and used for histological staining and examination. Sagittal brain sections were stained with Congo red dye (Sigma-Aldrich) and visualized by fluorescence microscopy. Quantification of amyloid depositions was done for the whole hippocampal area in a blinded fashion using Imaging Research software from the National Institutes of Health in an unbiased stereological approach.

T1 sequence (P10636 1-441 isoform P10636-8): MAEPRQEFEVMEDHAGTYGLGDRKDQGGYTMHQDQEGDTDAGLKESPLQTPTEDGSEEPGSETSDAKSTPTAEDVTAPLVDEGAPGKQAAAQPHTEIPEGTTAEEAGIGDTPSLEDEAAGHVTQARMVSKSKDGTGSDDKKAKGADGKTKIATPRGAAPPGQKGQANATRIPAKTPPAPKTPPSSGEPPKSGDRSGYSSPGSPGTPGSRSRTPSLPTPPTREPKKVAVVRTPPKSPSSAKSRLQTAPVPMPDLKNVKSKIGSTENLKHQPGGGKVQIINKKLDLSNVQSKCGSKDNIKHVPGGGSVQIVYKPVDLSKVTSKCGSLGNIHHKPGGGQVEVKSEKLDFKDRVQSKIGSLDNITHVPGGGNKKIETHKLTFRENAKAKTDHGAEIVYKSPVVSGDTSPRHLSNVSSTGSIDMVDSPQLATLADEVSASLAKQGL

On to “ATVIVITLVMLKKKQYTS [APP2, reference compound]”, for which, in experiment [1], the “inhibition of APP protein binding to Tau coated plate” value (“inhibition of APP protein binding” for short) is listed as “not inhibited”. Also, in experiment [2], the “binding to Tau” value was “bind Tau”.

As for “GLGDRKDQGGYTMHQD [Tau1, synthetic peptide from N-terminal end of Tau protein (residues 19-34)]”, the “inhibition of APP protein binding” value in experiment [1] was “not inhibited”. As to “HFQKAKERLEAKHRERMSQVMRE [APP1, synthetic peptide from APP protein, APP1 (390-412)]”, in experiment [1], the “inhibition of APP protein binding” value is “significant but partial inhibition; also recorded: significant, but partial inhibition”. Consider “HFQKAKERLEAKHRERMSQVMREGGGGSGGGGSGGGGSGLGDRKDQGGYTMHQD (example of a peptide which comprises an APP derived peptide linked by a flexible peptide linker to a TAU derived peptide)”, for which the “Y maze preferential index (cognitive ability)” value in experiment [3] is “improve”. Besides, in experiment [4], the “% of area” value came to 1.9% and the Number of elements is listed as 112.
